Data as given in patent US6465686B2, “Halogenated 2-amino-5,6 heptenoic acid derivatives useful as nitric oxide synthase inhibitors” (Pharmacia Corporation, priority 2000, dated 2002).
Where a name gives a salt, the structure may show the parent alone.

What was measured:
[1] = target: T1, human neuronal constitutive NOS (hncNOS) (Homo sapiens, UniProt P29475); assay: Citrulline assay for nitric oxide synthase, hncNOS; type: biochemical; details: recombinant enzyme, conversion of L-[2,3-3H]-arginine to citrulline, 30 μM L-arginine, calmodulin included
T1 construct: made in house; host or cells: Sf9 insect cells (baculovirus vector)
Source text: (§1) Citrulline Assay for Nitric Oxide Synthase
(§2) Nitric oxide synthase (NOS) activity can be measured by monitoring the conversion of L-[2,3-^3H]-arginine to L-[2,3-^3H]-citrulline (Bredt and Snyder, Proc. Natl. Acad. Sci. U.S.A., 87, 682-685, 1990 and Moore et al, J. Med. Chem., 39, 669-672, 1996). Human inducible NOS (hiNOS), human endothelial constitutive NOS (hecNOS) and human neuronal constitutive NOS (hncNOS) are each cloned from RNA extracted from human tissue. The cDNA for human inducible NOS (hiNOS) is isolated from a λcDNA library made from RNA extracted from a colon sample from a patient with ulcerative colitis. The cDNA for human endothelial constitutive NOS (hecNOS) is isolated from a λcDNA library made from RNA extracted from human umbilical vein endothelial cells (HUVEC) and the cDNA for human neuronal constitutive NOS (hncNOS) is isolated from a λcDNA library made from RNA extracted from human cerebellum obtained from a cadaver. The recombinant enzymes are expressed in Sf9 insect cells using a baculovirus vector (Rodi et al, in The Biology of Nitric Oxide, Pt. 4: Enzymology, Biochemistry and Immunology: Moncada, S., Feelisch, M., Busse, R., Higgs, E., Eds.; Portland Press Ltd.: London, 1995; pp 447-450). Enzyme activity is isolated from soluble cell extracts and partially purified by DEAE-Sepharose chromatography. To measure NOS activity, 10 μL of enzyme is added to 40 μL of 50 mM Tris (pH 7.6) in the presence or absence of test compounds and the reaction initiated by the addition of 50 μL of a reaction mixture containing 50 mM Tris (pH 7.6), 2.0 mg/mL bovine serum albumin, 2.0 mM DTT, 4.0 mM CaCl2, 20 μM FAD, 100 μM tetrahydrobiopterin, 0.4 mM NADPH and 60 μM L-arginine containing 0.9 μCi of L-[2,3-^3H]-arginine. The final concentration of L-arginine in the assay is 30 μM. For hecNOS or hncNOS, calmodulin is included at a final concentration of […]. Following incubation at 37° C. for 15 minutes, the reaction is terminated by addition of 400 μL of a suspension (1 part resin, 3 parts buffer) of Dowex 50W X-8 cation exchange resin in a stop buffer containing 10 mM EGTA, 100 mM HEPES, pH 5.5 and 1 mM L-citrulline. After mixing the resin is allowed to settle and L-[2,3-^3H]-Citrulline formation is determined by counting aliquots of the supernatant with a liquid scintillation counter. Results are reported in Table I as the IC50 values of compounds for hiNOS, hecNOS and hncNOS.

[2] = target: T2, Human inducible NOS (hiNOS) (Homo sapiens, UniProt P35228); assay: Citrulline assay for nitric oxide synthase, hiNOS; type: biochemical; details: recombinant enzyme, conversion of L-[2,3-3H]-arginine to citrulline, 30 μM L-arginine
T2 construct: made in house; host or cells: Sf9 insect cells (baculovirus vector)
Source text: as §1, §2

[3] = target: T3, human endothelial constitutive NOS (hecNOS) (Homo sapiens, UniProt P29474); assay: Citrulline assay for nitric oxide synthase, hecNOS; type: biochemical; details: recombinant enzyme, conversion of L-[2,3-3H]-arginine to citrulline, 30 μM L-arginine, calmodulin included
T3 construct: made in house; host or cells: Sf9 insect cells (baculovirus vector)
Source text: as §1, §2

Compound: CC(=N)NCC(F)=CCC[C@H](N)C(=O)O (mixture of isomers) [Example 2, (2S,5E/Z)-2-amino-6-fluoro-7-[(1-iminoethyl)amino]-5-heptenoic acid, dihydrochloride]
- IC50 [1]: 21 µM
- IC50 [2]: 2.2 µM
- IC50 [3]: 195 µM

Compound: CC(=N)NC/C(F)=C\CC[C@H](N)C(=O)O [Example 1, (2S,5E)-2-amino-6-fluoro-7-[(1-iminoethyl)amino]-5-heptenoic acid, dihydrochloride, monohydrate]
- IC50 [1]: 3.6 µM
- IC50 [2]: 0.36 µM
- IC50 [3]: 68 µM

Compound: CC(=N)NC/C(F)=C/CC[C@H](N)C(=O)O [Example 3, (2S,5Z)-2-amino-6-fluoro-7-[(1-iminoethyl)amino]-5-heptenoic acid, dihydrochloride]
- IC50 [1]: 105 µM
- IC50 [2]: 12 µM
- IC50 [3]: 303 µM

Compound: CC(=N)NC/C(F)=C/CC[C@H](N)C(=O)O [Example 4, (2S,5Z)-2-amino-6-fluoro-7-[(1-iminoethyl)amino]-5-heptenoic acid, trihydrochloride, dihydrate]
- IC50 [1]: 65 µM
- IC50 [2]: 8.6 µM
- IC50 [3]: 112 µM

Compound: CC(=N)NC/C(F)=C\CC[C@@H](N)C(=O)O [Example 5, (2R,5E)-2-amino-6-fluoro-7-[(1-iminoethyl)amino]-5-heptenoic acid, dihydrochloride, monohydrate]
- IC50 [1]: 29 µM
- IC50 [2]: < 5 µM
- IC50 [3]: 279 µM

Compound: CC(=NO)NC/C(F)=C\CC[C@H](N)C(=O)O [Example 10, (2S,5E)-2-amino-6-fluoro-7-[(1-hydroximinoethyl)amino]-5-heptenoic acid]
- melting point: 198 to 200 °C
